Test results as given in patent US20240173292A1, “COMPOUNDS THAT SYNERGIZE WITH COPPER TO KILL STREPTOCOCCUS PNEUMONIAE” (priority 2021, published 2024).
“Also recorded” adds a separate entry of the source. Where two headings read alike, the source gives them in different places.

Columns and labels:
ΔcopA mutant strain = assay: Growth curves in ThyB with copper sulfate and compound, copper exporter deficient mutant; type: cell-based, Streptococcus pneumoniae; details: compound plus copper
Description: Final solution was set to pH 6.6.

WT TIGR4 S. pneumoniae [1] = assay: Growth curves in ThyB with copper sulfate and compound; details: for copper-dependent toxicity (CDT) / growth defect in growth curve: compound plus copper sulfate
[2] = cited from earlier work
S. aureus = details: cited from earlier work
WT TIGR4 S. pneumoniae [3] = details: M17
Coccidioides posadasii = details: inhaler with 50 mg DMDC twice a day for a week
[4] = test system: Methicillin-resistant Staphylococcus aureus (MRSA); details: topical cream containing 50 mg DMDC twice daily
TIGR4 S. pneumoniae [5] = details: ICP-OES
TIGR4 S. pneumoniae [6] = details: GFAAS
WT TIGR4 S. pneumoniae [7] = details: RPMI
Streptococcus pneumoniae = details: 150 mg DMDC orally once a day for a week
WT TIGR4 S. pneumoniae [8] = assay: Killing curves in THYB
Streptococcus pyogenes = details: inhaler with 25 mg DMDC twice a day for two weeks
[9] = test system: WT TIGR4 bacteria co-cultured with activated J774A.1 macrophages; assay: Macrophage killing assay, TIGR4 co-cultured with J774A.1 macrophages; type: cell-based, murine; details: macrophages with 100 μM inhibitor; bacteria treated with 250 μM Cu2+ + 16 μM DMDC
M. tuberculosis = details: cited from earlier work
Schistosoma mansoni = details: newly transformed and lung stage schistosomula; cited from earlier work

O.c1cnc2c(c1)ccc1cccnc12 [1,10-phenalthroline monohydrate]
CDT / growth defect in growth curve, ΔcopA (ΔcopA mutant strain): an effect
copper-dependent toxicity (CDT) / growth defect in growth curve (WT TIGR4 S. pneumoniae [1]; WT TIGR4): no effect on wild type

Oc1cccc2cccnc12 [8HQ, 8-hydroxyquinoline]
CDT / growth defect in growth curve, ΔcopA (ΔcopA mutant strain): susceptible; also recorded: does cause a growth defect
copper-dependent toxicity (CDT) / growth defect in growth curve (WT TIGR4 S. pneumoniae [1]; WT TIGR4): no 8HQ mediated CDT; also recorded: do not cause a significant growth defect
toxicity in mammals ([2]; mammals): inherent toxicity
CDT against S. aureus (S. aureus): have CDT

CCN(CC)C(=S)S [DETDC, N,N-diethyldithiocarbamate]
CDT at much higher / high concentrations (WT TIGR4 S. pneumoniae [1]; with copper): no effect

CN(C)C(=S)[S][Na] [DMDC]
time required for killing (WT TIGR4 S. pneumoniae [3]): 1 to 2 h
side effects (Coccidioides posadasii): No side effects
side effects [4]: No side effects
toxicity of chronic use ([2]; chronic use): harm the liver and lead to higher rates of some carcinomas
toxicity of high doses ([2]; high doses): neurological problems
increase of intracellular copper compared to the untreated control (TIGR4 S. pneumoniae [5]; 250 μM Cu2+ + 16 μM DMDC): 65 fold
increase of intracellular copper compared to the untreated control (TIGR4 S. pneumoniae [5]; 250 μM Cu2+ + 32 μM DMDC): 67 fold
increase of intracellular copper compared to the copper treated samples (TIGR4 S. pneumoniae [6]; 250 μM Cu2+ + 16 μM DMDC): 7 fold
increase of intracellular copper compared to the copper treated samples (TIGR4 S. pneumoniae [6]; 250 μM Cu2+ + 32 μM DMDC): 10 fold
time required for killing (WT TIGR4 S. pneumoniae [7]): 3 to 4 h
side effects (Streptococcus pneumoniae): No side effects
kill of wild-type Streptococcus pneumoniae (WT TIGR4 S. pneumoniae [8]; low micromolar DMDC complexed with copper, in 2 hours): up to 99.9%
side effects (Streptococcus pyogenes): No side effects

N=C(N)NOCC[C@H](N)C(=O)O [L-canavanine]
recovered bacteria with macrophage inhibitor treatment [9]: no statistically significant improvement

CC1(C)C2CC3OB(c4cccc5cccnc45)OC3(C)C1C2 (stereo not drawn) [QBP, quinoline boronic acid pinanediol ester]
CDT / growth defect in growth curve, ΔcopA (ΔcopA mutant strain): susceptible; also recorded: does cause a growth defect
CDT on the ΔcopA mutant as compared to 8HQ (ΔcopA mutant strain): did not exhibit as much CDT
copper-dependent toxicity (CDT) / growth defect in growth curve (WT TIGR4 S. pneumoniae [1]; WT TIGR4): no CDT; also recorded: do not cause a significant growth defect

CCN(CC)C(=S)SSC(=S)N(CC)CC [TETD, tetraethylthiuram disulfide]
growth with compound alone (WT TIGR4 S. pneumoniae [1]; TETD alone, no copper): prevented growth
copper-dependent toxicity (CDT) / growth defect in growth curve (WT TIGR4 S. pneumoniae [1]; WT TIGR4): returned growth to wild type levels
copper-dependent toxicity (CDT) / growth defect in growth curve (WT TIGR4 S. pneumoniae [1]; WT TIGR4, listed as disulfiram): not observed
copper dependent toxicity against M. tuberculosis (M. tuberculosis): copper dependent toxicity
bactericidal activity in killing curve (WT TIGR4 S. pneumoniae [8]; compound alone or with copper sulfate): did not show bactericidal activity

S=C(S)N1CCN(C(=S)S)CC1 [TLA2, Piperizine bis-dithiocarbamate]
concentration showing protective effect vs copper (WT TIGR4 S. pneumoniae [1]; 250 uM or 500 uM copper sulfate): > 32 µM

COc1cc(C(C)=O)ccc1O [apocynin]
recovered bacteria with macrophage inhibitor treatment [9]: no statistically significant improvement

O=C(C1CCCCC1)N1CC(=O)N2CCc3ccccc3C2C1 (stereo not drawn) [praziquantel]
efficacy of praziquantel in these developmental stages (Schistosoma mansoni): not effective

Cc1ncc(CSSCc2cnc(C)c(O)c2CO)c(CO)c1O.Cl [pyrithoxin dihydrochloride]
copper-dependent toxicity (CDT) / growth defect in growth curve (WT TIGR4 S. pneumoniae [1]; WT TIGR4): no effect
